Source: patent publication US20210392892A1, “COMPOSITIONS COMPRISING PYRIDINE CARBOXYLATE HERBICIDES AND ACETYL COA CARBOXYLASE (ACCASE) INHIBITOR HERBICIDES” (Corteva Agriscience LLC, priority 2018, published 2021)
Several values for one entry are separate records, joined by “and”; a condition that tells them apart may be missing. Identical values can stand only once.

Key:
Assay in all cases: Greenhouse postemergence herbicidal effect (visual injury)
Type in all cases: in vivo
[1] = tested on: SORVU, Sorghum vulgare (grain sorghum)
Text: (§1) Seeds of the desired test plant species were planted in a 90:10% v/v (volume/volume) mixture of PRO-MIX® BX (Premier Tech Horticulture, Quakertown, Pa., USA) and PROFILE® GREENS GRADE™ (Profile Products LLC, Buffalo Grove, Ill., USA) planting mixture, which typically has a pH of 5.2 to 6.2 and an organic matter content of at least 50 percent, in plastic pots with a surface area of 103.2 square centimeters (cm^2). In some aspects, to help ensure good germination and healthy plants, a fungicide treatment and/or other chemical or physical treatment was applied. The plants were grown for 7-36 days (d) in a greenhouse with an approximate 14-hour (h) photoperiod which was maintained at about 23° C. during the day and 22° C. during the night. Nutrients and water were added on a regular basis and supplemental lighting was provided with overhead metal halide 1000-Watt lamps as necessary. The plants were employed for testing when they reached the second or third true leaf stage.
(§2) Emulsifiable concentrates of each of each pyridine carboxylate herbicide (Compound A or Compound B) were prepared at 100 grams acid equivalent per liter (g ae/L). The emulsifiable concentrates also included a safener, cloquintocet-mexyl, at 120 grams active ingredient per liter (g ai/L), unless otherwise noted below. An aliquot of each emulsifiable concentrate was placed in a 25 mL glass vial and diluted with an aqueous mixture of 1.25% (v/v) ACTIROB® B esterified rapeseed oil (Bayer Crop Science, Research Triangle Park, N.C., USA) or MSO® Concentrate with LECI-TECH® methylated soybean oil (Loveland Products, Loveland, Colo., USA) to obtain concentrated stock solutions at the highest application rate for each herbicide, based upon a 12 milliliter (mL) application volume at a rate of 187 liters per hectare (L/ha). The concentrated stock solutions were further diluted with an aqueous mixture of 1.25% v/v ACTIROB® B or MSO® Concentrate with LECI-TECH® to obtain stock solutions at reduced application rates for each herbicide. Spray solutions of the herbicide combinations (Compound A or Compound B plus ACCase inhibitor herbicide) were prepared by adding weighed amounts or aliquots of the ACCase inhibitor herbicide to the stock solutions of Compound A or Compound B to form 12-mL spray solutions in two-way combinations.
(§3) The spray solutions were applied to the plant material with an overhead Mandel track sprayer equipped with 8002E nozzles calibrated to deliver 187 L/ha over an application area of 0.503 square meters (m^2) at a spray height of 18 inches (43 centimeters (cm)) above the average plant canopy. Control plants were sprayed in the same manner with the solvent blank. All pyridine carboxylate herbicide (component a) application rates are given as “g ae/ha” and all ACCase inhibitor herbicide (component b) application rates are given as “g ai/ha.”
(§4) The treated plants and control plants were placed in a greenhouse as described above and watered by sub-irrigation to prevent wash-off of the test compounds. After 20-22 d, the condition of the test plants as compared with that of the control plants was determined visually and scored on a scale of 0 to 100 percent where 0 corresponds to no injury and 100 corresponds to complete kill.

[2] = tested on: CIRAR, Cirsium arvense (Canadian thistle)
Text: as §1, §2, §3, §4

[3] = tested on: LEFCH, Leptochloa chinensis (Chinese sprangletop)
Text: as §1, §2, §3, §4

[4] = tested on: BRAPP, Brachiaria platyphylla (broadleaf signalgrass); settings: with cloquintocet-mexyl
Text: as §1, §2, §3, §4

[5] = tested on: KCHSC, Kochia scoparia (kochia)
Text: as §1, §2, §3, §4

ZEAMX, Zea mays (maize) = settings: with cloquintocet-mexyl
Text: as §1, §2, §3, §4

[6] = tested on: IPOHE, Ipomoea hederacea (ivyleaf morningglory)
Text: as §1, §2, §3, §4

[7] = tested on: GLXMA, Glycine max (soybean)
Text: as §1, §2, §3, §4

[8] = tested on: HELAN, Helianthus annuus (common sunflower)
Text: as §1, §2, §3, §4

[9] = tested on: ABUTH, Abutilon theophrasti (velvetleaf)
Text: as §1, §2, §3, §4

[10] = tested on: STEME, Stellaria media (chickweed)
Text: as §1, §2, §3, §4

[11] = tested on: RUMOB, Rumex obtusifolius (broad-leaf dock)
Text: as §1, §2, §3, §4

[12] = tested on: BRSNN, Brassica napus (spring rape); settings: with cloquintocet-mexyl
Text: as §1, §2, §3, §4

[13] = tested on: SETFA, Setaria faberi (giant foxtail)
Text: as §1, §2, §3, §4

[14] = 7.5 g ae/ha, without cloquintocet-mexyl
[15] = 10 g ae/ha, without cloquintocet-mexyl
[16] = 7.5 g ae/ha, with cloquintocet-mexyl
[17] = 10 g ae/ha, with cloquintocet-mexyl

N#CCOC(=O)c1nc(-c2ccc3cc[nH]c3c2F)c(F)c(N)c1Cl [Compound A, cyanomethyl 4-amino-3-chloro-5-fluoro-6-(7-fluoro-1H-indol-6-yl)pyridine-2-carboxylate]
% visual injury, Obs [1, 14]: 0% | % visual injury, Obs [1, 15]: 0% | % visual injury, Obs ([1]; SORVU, Compound A 7.5 g/ha, Fluazifop 0 g/ha): 0% | % visual injury, Obs ([1]; SORVU, Compound A 10 g/ha, Fluazifop 0 g/ha): 0% | % visual injury, Obs [2, 14]: 40% | % visual injury, Obs [2, 15]: 28% | % visual injury, Obs ([2]; CIRAR, Compound A 7.5 g/ha, Fluazifop 0 g/ha): 40% | % visual injury, Obs ([2]; CIRAR, Compound A 10 g/ha, Fluazifop 0 g/ha): 28% | % visual injury, Obs [3, 14]: 0% | % visual injury, Obs [3, 15]: 0% and 5% | % visual injury, Obs ([3]; LEFCH, Compound A 7.5 g/ha, Fluazifop 0 g/ha): 0% | % visual injury, Obs ([3]; LEFCH, Compound A 7.5 g/ha, Haloxyfop-R-methyl 0 g/ha): 0% | % visual injury, Obs ([3]; LEFCH, Compound A 7.5 g/ha, Quizalofop-P-ethyl 0 g/ha): 0% | % visual injury, Obs ([3]; LEFCH, Compound A 10 g/ha, Fluazifop 0 g/ha): 0% | % visual injury, Obs ([3]; LEFCH, Compound A 10 g/ha, Haloxyfop-R-methyl 0 g/ha): 5% | % visual injury, Obs ([3]; LEFCH, Compound A 10 g/ha, Quizalofop-P-ethyl 0 g/ha): 5% | % visual injury, Obs ([4]; 7.5 g ae/ha): 43% | % visual injury, Obs ([4]; 10 g ae/ha): 68% | % visual injury, Obs [5, 16]: 63% | % visual injury, Obs [5, 14]: 73% | % visual injury, Obs [5, 17]: 70% | % visual injury, Obs [5, 15]: 88% | % visual injury, Obs ([5]; KCHSC, Compound A 7.5 g/ha, Fluazifop 0 g/ha): 73% | % visual injury, Obs ([5]; KCHSC, Compound A 10 g/ha, Fluazifop 0 g/ha): 88% | % visual injury, Obs (ZEAMX, Zea mays (maize); 7.5 g ae/ha): 0% | % visual injury, Obs (ZEAMX, Zea mays (maize); 10 g ae/ha): 0% | % visual injury, Obs [6, 14]: 10% | % visual injury, Obs [6, 15]: 15% | % visual injury, Obs ([6]; IPOHE, Compound A 7.5 g/ha, Fluazifop 0 g/ha): 10% | % visual injury, Obs ([6]; IPOHE, Compound A 10 g/ha, Fluazifop 0 g/ha): 15% | % visual injury, Obs [7, 14]: 85% | % visual injury, Obs [7, 15]: 85% | % visual injury, Obs ([7]; GLXMA, Compound A 7.5 g/ha, Fluazifop 0 g/ha): 85% | % visual injury, Obs ([7]; GLXMA, Compound A 10 g/ha, Fluazifop 0 g/ha): 85% | % visual injury, Obs [8, 14]: 95% | % visual injury, Obs [8, 15]: 100% | % visual injury, Obs ([8]; HELAN, Compound A 7.5 g/ha, Fluazifop 0 g/ha): 95% | % visual injury, Obs ([8]; HELAN, Compound A 10 g/ha, Fluazifop 0 g/ha): 100% | % visual injury, Obs [9, 14]: 70% | % visual injury, Obs [9, 15]: 75% | % visual injury, Obs ([9]; ABUTH, Compound A 7.5 g/ha, Fluazifop 0 g/ha): 70% | % visual injury, Obs ([9]; ABUTH, Compound A 10 g/ha, Fluazifop 0 g/ha): 75% | % visual injury, Obs [10, 16]: 90% | % visual injury, Obs [10, 14]: 73% | % visual injury, Obs [10, 17]: 85% | % visual injury, Obs [10, 15]: 88% | % visual injury, Obs ([10]; STEME, Compound A 7.5 g/ha, Fluazifop 0 g/ha): 73% | % visual injury, Obs ([10]; STEME, Compound A 10 g/ha, Fluazifop 0 g/ha): 88% | % visual injury, Obs [11, 16]: 13% | % visual injury, Obs [11, 14]: 38% | % visual injury, Obs [11, 17]: 8% | % visual injury, Obs [11, 15]: 35% | % visual injury, Obs ([11]; RUMOB, Compound A 7.5 g/ha, Fluazifop 0 g/ha): 38% | % visual injury, Obs ([11]; RUMOB, Compound A 10 g/ha, Fluazifop 0 g/ha): 35% | % visual injury, Obs ([12]; 7.5 g ae/ha): 23% | % visual injury, Obs ([12]; 10 g ae/ha): 45% | % visual injury, Obs [13, 16]: 0% | % visual injury, Obs [13, 17]: 0% | % visual injury, Obs ([13]; SETFA, Compound A 7.5 g/ha, Fluazifop 0 g/ha): 0% | % visual injury, Obs ([13]; SETFA, Compound A 7.5 g/ha, Haloxyfop-R-methyl 0 g/ha): 63% | % visual injury, Obs ([13]; SETFA, Compound A 7.5 g/ha, Quizalofop-P-ethyl 0 g/ha): 63% | % visual injury, Obs ([13]; SETFA, Compound A 10 g/ha, Fluazifop 0 g/ha): 0% | % visual injury, Obs ([13]; SETFA, Compound A 10 g/ha, Haloxyfop-R-methyl 0 g/ha): 60% | % visual injury, Obs ([13]; SETFA, Compound A 10 g/ha, Quizalofop-P-ethyl 0 g/ha): 60%
